Numbered stars: 1 amine (or outer) side, 2 acyl side, 3 side chain; on linkers, the order of the positions; unused ones are H or OH. Bridge positions count the residues as written; N and C are the ends. Square brackets hold non-standard residues; d marks the D form. Peptide text beside a SMILES is read from it. ξ: configuration not given here. X8 = C/C=C(\C)[C@@H](O[*:2])[C@@H](C)CC/C=C(\C)C(=O)[*:1]; X1 = C/C(=C\CC[C@@H](C)CO[*:2])C(=O)[*:1]; X5 = C/C(=C\CC[C@H](C)CO[*:2])C(=O)[*:1]; dNMeF = CN[C@H](Cc1ccccc1)C(=O)O; Ile(3ξ) = CCC(C)[C@H](N)C(=O)O; dHica = CC(C)C[C@@H](O)C(=O)O; dNMeA = CN[C@H](C)C(=O)O; Sar = CNCC(=O)O Bounds are passed on as bounds.

The record followed here is patent US10472395B2, “Cyclic peptide analogs and conjugates thereof” (Sirenas LLC, priority 2015, dated 2019).

For test [1], the system named is HCC1954 cells. The test is described as follows: Inhibitory response of test compounds against HCC1954 cells (method analogous to BT-474). The test is classed as cell-based. Particulars: Homo sapiens. How it is done: (§1) BT-474 human mammary gland ductal carcinoma cells were seeded in a clear polystyrene 96-well microculture plate (Corning® Costar® 96-well flat bottom plate, Cat.#3997) in a total volume of 90 μL/well. After 24 hours of incubation in a humidified incubator at 37° C. with 5% CO2 and 95% air, 10 μL of 10×, serially diluted test agents in growth medium were added to each well (10 pt dose response curve, highest concentration 10 μM of test agent). After 72 hours of culture in a humidified incubator at 37° C., in an atmosphere of 5% CO2 and 95% air, the plated cells and Cell Titer-Glo® (Promega G7571) reagents were brought to room temperature to equilibrate for 30 minutes. 100 μL of Cell Titer-Glo® reagent was added to each well. The plate was shaken for two minutes and then left to equilibrate for ten minutes. The media/Cell Titer-Glo® reagent was transferred to a white polystyrene 96-well microculture plate (Corning® Costar® 96-well flat bottom plate, Cat.#3917) before reading luminescence on a Tecan GENios microplate reader.
(§2) Percent inhibition of cell growth was calculated relative to untreated control wells. The IC50 value for the test agents was determined using Prism 6.05 by curve-fitting of the data using the following four parameter-logistic equation:
(§3) [formula] where Top is the maximal % of control absorbance, Bottom is the minimal % of control absorbance at the highest agent concentration, Y is the % of control absorbance, X is the agent concentration, IC50 is the concentration of agent that inhibits cell growth by 50% compared to the control cells, and n is the slope of the curve.
Inhibitory response of test compounds against HCC1954 cells was determined using a method analogous to that used for BT-474 cells.

Test [2] relates to BT-474 human mammary gland ductal carcinoma cells. The test is described as follows: Inhibitory response of test compounds against BT-474 cells (Cell Titer-Glo, 72 h). Particulars: Homo sapiens. The class given is cell-based. How it is done:
as §1, §2, §3
(ATP-based viability assays read luminescence as a measure of living cells.)

Regarding `CCC(C)[C@@H]1NC(=O)CN(C)C(=O)[C@@H](Cc2ccccc2)N(C)C(=O)[C@H](C)NC(=O)[C@@H](CC(C)C)OC(=O)/C(C)=C/CC[C@H](C)COC(=O)[C@@H](C)NC1=O` (stereo partly shown) [Compound 91] ([dHica]A[dNMeF][Sar][Ile(3ξ)][dA]; linker N-C via X5), the half-inhibitory concentration (IC50) in test [1] and in test [2] was 200 to 10000 nM each time.
Turning to `CCC(C)[C@@H]1NC(=O)CN(C)C(=O)[C@@H](Cc2ccccc2)N(C)C(=O)[C@H](C)NC(=O)[C@@H](CC(C)C)OC(=O)/C(C)=C/CC[C@@H](C)COC(=O)[C@@H](C)NC1=O` (stereo partly shown) [Compound 92] ([dHica]A[dNMeF][Sar][Ile(3ξ)][dA]; linker N-C via X1), the IC50 in test [1] and in test [2] was 200 to 10000 nM in each case.
In the case of `C/C=C(\C)[C@H]1OC(=O)[C@@H](C)NC(=O)[C@H](C(C)CC)NC(=O)CN(C)C(=O)[C@@H](Cc2ccccc2)N(C)C(=O)[C@H](C)NC(=O)[C@@H](CC(C)C)OC(=O)/C(C)=C/C[C@H](OC(=O)N(C)CCN(C)C(=O)OC(C)(C)C)[C@@H]1C` (stereo partly shown) [Compound 93], the IC50 in test [1] and in test [2] was < 20 nM each time.
In the case of `C/C=C(\C)[C@H]1OC(=O)[C@@H](C)NC(=O)[C@H](C(C)CC)NC(=O)CN(C)C(=O)[C@@H](Cc2ccccc2)N(C)C(=O)[C@H](C)NC(=O)[C@@H](CC(C)C)OC(=O)/C(C)=C/C[C@H](OCSC)[C@@H]1C` (stereo partly shown) [Compound 94], the IC50 in test [1] and in test [2] was < 20 nM throughout.
`C/C=C(\C)[C@H]1OC(=O)[C@@H](C)NC(=O)[C@H](C(C)CC)NC(=O)CN(C)C(=O)[C@@H](Cc2ccc(OC)cc2)N(C)C(=O)[C@H](C)NC(=O)[C@@H](CC(C)C)OC(=O)/C(C)=C/C=C/[C@@H]1C` (stereo partly shown) [Compound 95]: the IC50 – broadly, the point on the concentration scale where inhibition reaches its midpoint – in test [1] was 20 to 200 nM; in test [2] it was < 20 nM.
In the case of `C/C=C(\C)[C@H]1OC(=O)[C@@H](C)NC(=O)[C@H]([C@H](C)CC)NC(=O)CN(C)C(=O)[C@@H](Cc2ccccc2)N(C)C(=O)[C@H](CCCCNC(=O)OC(C)(C)C)NC(=O)[C@@H](CC(C)C)OC(=O)/C(C)=C/C[C@H](O)[C@@H]1C` [Compound 96], the IC50 in test [1] and in test [2] was < 20 nM each time.
With `C/C=C(\C)[C@H]1OC(=O)[C@@H](C)NC(=O)[C@H]([C@H](C)CC)NC(=O)CN(C)C(=O)[C@@H](Cc2ccc(OCc3ccccc3)cc2)N(C)C(=O)[C@H](C)NC(=O)[C@@H](CC(C)C)OC(=O)/C(C)=C/C=C/[C@@H]1C` [Compound 98], the IC50 in test [1] and in test [2] was < 20 nM each time.
As to `C/C=C(\C)[C@H]1OC(=O)[C@@H](C)NC(=O)[C@H](C(C)CC)NC(=O)CN(C)C(=O)[C@@H](Cc2ccc(O)cc2)N(C)C(=O)[C@H](C)NC(=O)[C@@H](CC(C)C)OC(=O)/C(C)=C/C=C/[C@@H]1C` (stereo partly shown) [Compound 99], the concentration for half-maximal inhibition (IC50) in test [1] is 200 to 10000 nM; in test [2], 20 to 200 nM.
Turning to `C/C=C(\C)[C@H]1OC(=O)[C@@H](C)N(C)C(=O)[C@H](C(C)CC)NC(=O)CN(C)C(=O)[C@@H](Cc2ccccc2)N(C)C(=O)[C@H](C)NC(=O)[C@@H](CC(C)C)OC(=O)/C(C)=C/CC[C@@H]1C` (stereo partly shown) [Compound 100] ([dHica]A[dNMeF][Sar][Ile(3ξ)][dNMeA]; linker N-C via X8), the IC50 in test [1] is 20 to 200 nM; in test [2], < 20 nM.
For `C/C=C(\C)[C@H]1OC(=O)[C@@H](C)NC(=O)[C@H]([C@H](C)CC)NC(=O)CN(C)C(=O)[C@@H](Cc2ccc(F)cc2)N(C)C(=O)[C@H](C)NC(=O)[C@@H](CC(C)C)OC(=O)/C(C)=C/C[C@H](OCSC)[C@@H]1C` [Compound 101], the IC50 in test [1] and in test [2] was < 20 nM each time.
As for `C/C=C(\C)[C@H]1OC(=O)[C@@H](C)NC(=O)[C@H](C(C)CC)NC(=O)CN(C)C(=O)[C@@H](Cc2ccc(O)cc2)N(C)C(=O)[C@H](C)NC(=O)[C@@H](CC(C)C)OC(=O)/C(C)=C/CC[C@@H]1C` (stereo partly shown) [Compound 102], the IC50 is 20 to 200 nM in test [1] and < 20 nM in test [2].
Take `C/C=C(\C)[C@H]1OC(=O)[C@@H](C)NC(=O)[C@H]([C@H](C)CC)NC(=O)CN(C)C(=O)[C@@H](Cc2ccccc2)N(C)C(=O)[C@H](C)NC(=O)[C@@H](CC(C)C)OC(=O)/C(C)=C/C[C@H](OC(=O)NCCCCCCNC(=O)OC(C)(C)C)[C@@H]1C` [Compound 105]: the IC50 in test [1] and in test [2] was < 20 nM each time.
For the compound `C/C=C(\C)[C@H]1OC(=O)[C@@H](C)NC(=O)[C@H]([C@H](C)CC)NC(=O)CN(C)C(=O)[C@@H](Cc2ccccc2)N(C)C(=O)[C@H](C)NC(=O)[C@@H](CC(C)C)OC(=O)/C(C)=C/C[C@H](OC(=O)NCCCOCCOCCOCCCNC(=O)OC(C)(C)C)[C@@H]1C` [Compound 106], the IC50 in test [1] and in test [2] was < 20 nM throughout.
For `C/C=C(\C)[C@H]1OC(=O)[C@@H](C)NC(=O)[C@H](C(C)CC)NC(=O)CN(C)C(=O)[C@@H](Cc2ccccc2)N(C)C(=O)[C@H](C)NC(=O)[C@@H](CC(C)C)OC(=O)/C(C)=C/C[C@H](CC(=O)NCCCCCCN)[C@@H]1C` (stereo partly shown) [Compound 107], the values for the IC50 in test [1] and in test [2] were 20 to 200 nM and < 20 nM, respectively.
For `C/C=C(\C)[C@H]1OC(=O)[C@@H](C)NC(=O)[C@H](C(C)CC)NC(=O)CN(C)C(=O)[C@@H](Cc2ccccc2)N(C)C(=O)[C@H](C)NC(=O)[C@@H](CC(C)C)OC(=O)/C(C)=C/C[C@H](OC(=O)NCCCOCCOCCOCCCN)[C@@H]1C` (stereo partly shown) [Compound 108], the values for the 50% inhibitory concentration (IC50) in test [1] and in test [2] were 200 to 10000 nM and 20 to 200 nM, respectively.
`C/C=C(\C)[C@H]1OC(=O)[C@@H](C)NC(=O)[C@H]([C@H](C)CC)NC(=O)CN(C)C(=O)[C@@H](Cc2ccccc2)N(C)C(=O)[C@H](C)NC(=O)[C@@H](CC(C)C)OC(=O)/C(C)=C/C[C@H](CC(=O)N(C)CCN(C)C(=O)c2ccc(C=O)cc2)[C@@H]1C` [Compound 110]: the IC50 is 20 to 200 nM in test [1] and < 20 nM in test [2].
Consider `C/C=C(\C)[C@H]1OC(=O)[C@@H](C)NC(=O)[C@H]([C@H](C)CC)NC(=O)CN(C)C(=O)[C@@H](Cc2ccccc2)N(C)C(=O)[C@H](C)NC(=O)[C@@H](CC(C)C)OC(=O)/C(C)=C/C[C@H](OC(=O)NCCCCCCNC(=O)CCOCCOCCOCCOCCNC(=O)c2ccc(C=O)cc2)[C@@H]1C` [Compound 111], for which the IC50 in test [1] and in test [2] was > 10000 nM in each case.
In the case of `C/C=C(\C)[C@H]1OC(=O)[C@@H](C)NC(=O)[C@H]([C@H](C)CC)NC(=O)CN(C)C(=O)[C@@H](Cc2ccccc2)N(C)C(=O)[C@H](C)NC(=O)[C@@H](CC(C)C)OC(=O)/C(C)=C/C[C@H](OC(=O)NCCCOCCOCCOCCCN=[N+]=N)[C@@H]1C` [Compound 113], the IC50 in test [1] and in test [2] was < 20 nM throughout.
On to `C/C=C(\C)[C@H]1OC(=O)[C@@H](C)NC(=O)[C@H]([C@H](C)CC)NC(=O)CN(C)C(=O)[C@@H](Cc2ccccc2)N(C)C(=O)[C@H](C)NC(=O)[C@@H](CC(C)C)OC(=O)/C(C)=C/C[C@H](OC(=O)N(C)CCN(C)C=O)[C@@H]1C` [Compound 114], for which the values for the IC50 in test [1] and in test [2] were 20 to 200 nM and < 20 nM, respectively.
For the compound `C/C=C(\C)[C@H]1OC(=O)[C@@H](C)NC(=O)[C@H]([C@H](C)CC)NC(=O)CN(C)C(=O)[C@@H](Cc2ccccc2)N(C)C(=O)[C@H](C)NC(=O)[C@@H](CC(C)C)OC(=O)/C(C)=C/C[C@H](OC(=O)N(C)CCN(C)S(=O)(=O)c2ccc([N+](=O)[O-])cc2)[C@@H]1C` [Compound 115], the IC50 in test [1] and in test [2] was < 20 nM in each case.
